Source: patent publication US10233202B2, “Tenofovir monobenzyl ester phosphamide prodrug, preparation method and use thereof” (JIANGSU TASLY DIYI PHARMACEUTICAL CO., LTD., priority 2015, dated 2019)
Where a name gives a salt, the structure may show the parent alone. Read-outs that look alike come from different tables or passages of the source.

Key:
[1] = Stability in the human liver S9; format: in vitro ADME; settings: human liver S9, 1 μM
Protocol: (§1) The following stability test were carried out according to the prior art, and the data of the stability test shown in the table were the residue percentages after the test compounds were incubated for different period of time under the test condition.

[2] = tested on: HBV; experiment: Cell based anti-HBV activity test, HBV DNA in HepG2.2.15 cell supernatant by qPCR; settings: Hepatitis B virus
Protocol: (§2) 8.1. Dilution of the compounds: the initial concentration of each compound in the in vitro anti-HBV activity test was 1 μM, with 3-fold serial dilution to 8 concentrations; the initial concentration of each compound in the cytotoxicity test was 100 μM, with 3-fold serial dilution to 8 concentrations; DMSO was used for the dilution of the compound mother liquor. The initial concentrations of the reference compound TDF for the anti-HBV activity test in vitro and the cytotoxicity test were all set at 0.2 μM, with 3-fold serial dilution to 8 concentrations.
8.2. Anti-HBV activity test in vitro: the HepG2.2.15 cells were plated in the 96-well plate (4×10^4 cells/well), and cultured overnight at 37° C. in 5% CO2. On second day, fresh culture solutions containing compounds of different concentrations were added to the culture wells. See Table 2 for the compound distribution. On 5th day, the used culture solutions in the culture wells were sucked and discarded, and fresh culture solutions containing compounds of different concentrations were added. On 8th day, the supernatant in the culture wells was collected for the extraction of HBV DNA in the supernatant. qPCR test was used to detect the concentration of HBV DNA content in the HepG2.2.15 supernatant.
8.4. Data analysis and calculation of the inhibition percentage and relative cell viability: The inhibition percentage was calculated using the following formula: % Inh.=[(HBV quantity of DMSO control−HBV quantity of sample)/HBV quantity of DMSO control]×100%
9.1 Drugs: the dilution method and concentrations of compound 3, the reference compound (CN201380030061.6, and the compound shown in claim 36 (abbreviation: compound 7), and the isomer thereof) were the same as those in example 1.
(§3) 9.2 Test method: the test was carried out according to the procedure in example 1.

[3] = Stability in the simulated gastric fluid; format: in vitro ADME; settings: 10 μM
Protocol: as §1

[4] = target: hERG K-channel (Homo sapiens, UniProt Q12809); experiment: hERG manual whole-cell patch clamp in CHO cells (cardiotoxicity study); settings: IC50, hERG current, room temperature
Protocol: The CHO cells obtained from AVivaBiosciences that could stably express the hERG K-channel were used in the test, and the cells were incubated at 37° C. in 5% CO2 and under constant humidity.
The final concentration of DMSO in the extracellular fluid was not higher than 0.30%.
The whole-cell patch clamp technique was used on the Multiclamp patch-clamp amplifier to test the compound at room temperature, the output signal was digitalized using the DIgiDAta 1440 A/D-D/A plate, and the Pclamp10 software was used for the control of the recording. The minimum sealing resistance was set at 500 MOh/ms, and the minimum specific hERG current was set at 0.4 nA for quality control.
Clampfit (V10.2, Molecular Devices), Excel 2003 and GraphPad Prism 5.0 were used for the data analysis. The calculation formula of the current: I/Icontrol=Bottom+(Top−Bottom)/(1+10^((LogIC50−Log C)*Hillslope

[5] = Stability in the simulated intestinal fluid; format: in vitro ADME; settings: 10 μM
Protocol: as §1

[6] = Stability in the human blood; format: in vitro ADME; settings: 2 μM
Protocol: as §1

[7] = in vitro; format: cell-based; settings: human, HepG2.2.15 cells; for CC50: Cell-titer Blue on 8th day, Table 3
Protocol: (§4) The concentration of HBV DNA in the HepG2.2.15 cell supernatant was detected through the real-time fluorescence quantitative PCR (qPCR) method to determine the anti-HBV activity of the compound in the HepG2.2.15 cells, and the effect of the testing compounds to the HepG2.2.15 cell activity was detected through Cell-titer Blue.
as §2
(§5) 8.3. Treatment of the cells in the cell viability test: the HepG2.2.15 cells were plated in the 96-well plate (4×10^4 cells/well), and cultured overnight at 37° C. in 5% CO2. On 2nd day, fresh culture solutions containing compounds of different concentrations were added to the culture wells. See Table 3 for the compound distribution. On 5th day, the used culture solutions in the culture wells were sucked and discarded, and fresh culture solutions containing compounds of different concentrations were added. On 8th day, Cell-titer Blue agent was added to each well, and the microplate reader was used to detect the fluorescence value of each well.
(§6) The cell viability percentage was calculated using the following formula: % cell viability=(fluorescence of sample−fluorescence of medium control)/(fluorescence of DMSO control−fluorescence of medium control)[…] 100%
as §3

[8] = tested on: HepG2.2.15 cells; experiment: in vitro; format: cell-based; settings: comparative test, Table 4
Protocol: as §4, §2, §5, §6, §3

[9] = tested on: HIV-1 IIIB; experiment: In vitro anti-HIV activity test in MT-4 cells infected with HIV-1 IIIB (CellTiter Glo); format: cell-based
Protocol: 9.1. Dilution and concentrations of the compounds and the reference compound (CN01813161GS-7340, TDF) were the same as those in example 1.
9.2. In vitro anti-HIV activity test: after MT-4 cells were infected with 24 TCID50HIV-1 IIIB/1×10^5 cells (2.4 TCID50/well) at 37° C. for 1 hour, they were plated in the 96-well plate containing the compounds of different concentrations ([…]) and cultured at 37° C. in 5% CO2 for 5 days. CellTiter Glo was used to determine the activity to calculate the EC50 value.
(§7) 9.4. Data analysis and calculation of the inhibition percentage: the activity percentage was calculated using the following formula: Activity (%) =(Raw datacpd−AverageVC)/(AverageCC−AverageVC)*100Cell Viability (%)=Raw datacpd/AverageCC*100

[10] = Cell viability test in MT-4 cells (CellTiter Glo); format: cell-based; settings: human
Protocol: 9.3. Treatment of the cells in the cell viability test: parallel tests were carried out using the same method as that in 9.2, except that the 96-well plate containing the compounds of different concentrations were replaced with the blank 96-well plate, and CellTiter Glo was used to determine the cell viability to calculate the CC50 value.
as §7

[11] = oral, after intestinal absorption; cited from earlier work
[12] = HepG2.2.15, HepG2.2.15 cells, comparative test, Table 4, read-out: EC50
[13] = Human immunodeficiency virus 1, MT4, 120 h, MT-4 cells infected with HIV-1 IIIB, 5 days, read-out: EC50

Chain of hERG K-channel (Q12809 whole entry): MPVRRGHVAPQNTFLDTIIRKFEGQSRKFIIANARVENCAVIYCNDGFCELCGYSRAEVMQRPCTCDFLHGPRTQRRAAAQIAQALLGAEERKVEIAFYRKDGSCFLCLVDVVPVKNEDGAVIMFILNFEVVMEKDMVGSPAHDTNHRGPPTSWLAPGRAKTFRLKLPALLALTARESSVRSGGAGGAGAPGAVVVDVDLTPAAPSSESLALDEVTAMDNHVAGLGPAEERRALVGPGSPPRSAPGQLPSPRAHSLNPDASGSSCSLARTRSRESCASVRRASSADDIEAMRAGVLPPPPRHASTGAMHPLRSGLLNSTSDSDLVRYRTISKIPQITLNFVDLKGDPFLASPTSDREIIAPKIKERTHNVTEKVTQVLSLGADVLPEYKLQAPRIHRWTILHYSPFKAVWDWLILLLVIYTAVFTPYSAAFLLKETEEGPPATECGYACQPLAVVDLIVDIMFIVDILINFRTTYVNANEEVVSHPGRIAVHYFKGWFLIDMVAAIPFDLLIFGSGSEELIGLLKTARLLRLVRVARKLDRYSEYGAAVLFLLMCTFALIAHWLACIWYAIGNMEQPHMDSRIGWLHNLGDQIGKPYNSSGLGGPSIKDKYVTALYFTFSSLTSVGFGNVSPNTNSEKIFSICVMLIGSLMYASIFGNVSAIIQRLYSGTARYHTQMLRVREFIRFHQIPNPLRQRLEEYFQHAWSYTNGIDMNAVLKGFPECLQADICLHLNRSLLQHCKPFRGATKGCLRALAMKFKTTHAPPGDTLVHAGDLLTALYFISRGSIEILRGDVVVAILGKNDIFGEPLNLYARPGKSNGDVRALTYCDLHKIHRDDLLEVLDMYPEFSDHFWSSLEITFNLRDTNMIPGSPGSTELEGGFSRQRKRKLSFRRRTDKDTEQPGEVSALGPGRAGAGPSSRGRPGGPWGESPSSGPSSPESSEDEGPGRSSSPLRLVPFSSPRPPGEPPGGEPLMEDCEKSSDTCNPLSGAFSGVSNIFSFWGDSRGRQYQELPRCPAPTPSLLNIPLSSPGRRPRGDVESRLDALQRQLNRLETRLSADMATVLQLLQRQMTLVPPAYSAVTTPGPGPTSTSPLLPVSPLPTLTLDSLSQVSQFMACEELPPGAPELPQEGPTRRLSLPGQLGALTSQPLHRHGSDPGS

CC(C)OC(=O)[C@H](C)N[P@@](=O)(CO[C@H](C)Cn1cnc2c(N)ncnc21)OCc1ccccc1 (single isomer, unassigned) [Compound 3a]
CLlint(s9) [1]: 70.0 µL/min/mg | half-life at 1 μM [1]: 9.9 min | Remaining (T = 60 min) [1]: 6% | CLlint(s9) ([1]; scaled per kg): 0.2464 mL/min/kg | EC50 [2, 12]: 0.00339 µM | % 0 min (residue percentage) [3]: 100% | % 60 min (residue percentage) [3]: 85.40% | % 120 min (residue percentage) [3]: 58.07% | % 360 min (residue percentage) [3]: 14.41% | % 1440 min (residue percentage) [3]: 0.00% | IC50 [4]: > 10 µM | % 0 min (residue percentage) [5]: 100% | % 60 min (residue percentage) [5]: 53.62% | % 120 min (residue percentage) [5]: 23.45% | % 360 min (residue percentage) [5]: 1.26% | % 1440 min (residue percentage) [5]: 0.00% | % 0 min (residue percentage) [6]: 100% | % 10 min (residue percentage) [6]: 97.4% | % 30 min (residue percentage) [6]: 98.9% | % 60 min (residue percentage) [6]: 97.8% | % 120 min (residue percentage) [6]: 94.5% | CC50 [7]: > 100 µM | CC50 [8]: > 100 µM | EC50 [9, 13]: 0.00513 µM | CC50 at 5 days [10]: 22.5 µM

CC(C)OC(=O)[C@H](C)N[P@](=O)(CO[C@H](C)Cn1cnc2c(N)ncnc21)OCc1ccccc1 (single isomer, unassigned) [Compound 3b]
CLlint(s9) [1]: 68.6 µL/min/mg | half-life at 1 μM [1]: 10.1 min | Remaining (T = 60 min) [1]: 9% | CLlint(s9) ([1]; scaled per kg): 0.2415 mL/min/kg | EC50 ([2]; HepG2.2.15, HepG2.2.15 cells, HBV DNA in supernatant on 8th day, Table 3, read-out: EC50): < 0.01 µM | EC50 [2, 12]: 0.006 µM | % 0 min (residue percentage) [3]: 100% | % 60 min (residue percentage) [3]: 84.26% | % 120 min (residue percentage) [3]: 58.54% | % 360 min (residue percentage) [3]: 17.28% | % 1440 min (residue percentage) [3]: 0.00% | IC50 [4]: > 30 µM | % 0 min (residue percentage) [5]: 100% | % 60 min (residue percentage) [5]: 51.07% | % 120 min (residue percentage) [5]: 20.20% | % 360 min (residue percentage) [5]: 0.23% | % 1440 min (residue percentage) [5]: 0.00% | % 0 min (residue percentage) [6]: 100% | % 10 min (residue percentage) [6]: 97.1% | % 30 min (residue percentage) [6]: 96.4% | % 60 min (residue percentage) [6]: 96.1% | % 120 min (residue percentage) [6]: 93.7% | CC50 [7]: > 100 µM | CC50 [8]: > 100 µM | EC50 [9, 13]: 0.00986 µM | CC50 at 5 days [10]: 16.9 µM

CC(C)OC(=O)[C@H](C)N[P@](=O)(CO[C@H](C)Cn1cnc2c(N)ncnc21)Oc1ccccc1 [GS-7340]
CLlint(s9) [1]: 211.0 µL/min/mg | half-life at 1 μM [1]: 3.3 min | Remaining (T = 60 min) [1]: 4% | CLlint(s9) ([1]; scaled per kg): 0.7427 mL/min/kg | EC50 ([2]; HepG2.2.15): 0.0178 µM | % 0 min (residue percentage) [3]: 100% | % 60 min (residue percentage) [3]: 95.40% | % 120 min (residue percentage) [3]: 66.36% | % 360 min (residue percentage) [3]: 23.41% | % 1440 min (residue percentage) [3]: 0.19% | IC50 [4]: > 10 µM | % 0 min (residue percentage) [5]: 100% | % 60 min (residue percentage) [5]: 30.09% | % 120 min (residue percentage) [5]: 6.22% | % 360 min (residue percentage) [5]: 0.06% | % 1440 min (residue percentage) [5]: 0.00% | % 0 min (residue percentage) [6]: 100% | % 10 min (residue percentage) [6]: 93.2% | % 30 min (residue percentage) [6]: 91.0% | % 60 min (residue percentage) [6]: 90.3% | % 120 min (residue percentage) [6]: 90.0% | CC50 at 6 days ([7]; comparative test, Table 4): > 100 µM | EC50 ([9]; Human immunodeficiency virus 1, IIIB, MT4, 120 h): 0.0143 µM | CC50 at 5 days [10]: 13.3 µM

CC(C)OC(=O)OCOP(=O)(CO[C@H](C)Cn1cnc2c(N)ncnc21)OCOC(=O)OC(C)C [TDF, Tenofovir Disoproxil Fumarate]
fraction excreted out of the body in original form [11]: ~80% | fraction metabolized and activated into the Tenofovir parent drug under the action of esterase [11]: less than 20% | EC50 [9, 13]: 0.017 µM | CC50 at 5 days [10]: 21.3 µM
